Each structure is given as a SMILES string. Values after ≈ are worked out from the molar mass of the structure shown.

Results on eight compounds are retold here after DBAASP.

Among the test systems are Candida glabrata 090902; Escherichia coli 44102; Bacillus subtilis A47.
What all share (assay): ≥ marks a high value that may be exact or a test limit, other limits are often not marked, values filed in µg/mL are converted to µM
The subject of assay [1] is Enterococcus faecalis 981.
Assay [2] relates to Nocardia asteroides 201118.
Assay [3] has as its system Staphylococcus aureus ATCC 25923.
Assay [4] relates to Psychrobacter faecalis X29.
Assay [5] relates to Enterococcus faecium 091299.
Assay [6] has as its system Enterobacter cloacae CGMCC 1.57.
Assay [7] relates to Klebsiella pneumoniae 08040724.
Assay [8] relates to Pseudomonas aeruginosa ATCC 27853.
The test system of assay [9] is Staphylococcus epidermidis ATCC 35984.
The test system of assay [10] is Staphylococcus aureus ATCC 33591.
The subject of assay [11] is Escherichia coli NCIMB 11843.
For assay [12], the system named is Pseudomonas fluorescens NCIMB 9046.
Assay [13] concerns Staphylococcus aureus Newman.
Assay [14] deals with Staphylococcus aureus RN4220.
The subject of assay [15] is Staphylococcus aureus SA113.
Assay [16] has as its system Cronobacter sakazakii DSM 4485.
Assay [17] has as its system Klebsiella pneumoniae NCIMB 13218.
Assay [18] relates to Cronobacter sakazakii ATCC BAA-894.
Assay [19] has as its system Cronobacter muytjensii ATCC 51329.
Assay [20] deals with Staphylococcus aureus NCTC 8325-4.
Assay [21] concerns Staphylococcus aureus RF122.
Assay [22] concerns Cronobacter sakazakii DPC 6440.
Assay [23] relates to Salmonella enterica subsp. enterica serovar Typhimurium LT2.
The test system of assay [24] is Pseudomonas syringae pv. tomato DC3000.
Assay [25] has as its system Pseudomonas corrugata DSM 7228.
For assay [26], the system named is Xanthomonas vesicatoria DSM 50861.
For assay [27], the system named is Clavibacter michiganensis subsp. michiganensis DSM 46294.
Assay [28] has as its system Pectobacterium carotovorum subsp. carotovorum DSM 30168.
Assay [29] deals with Staphylococcus aureus 90857.
The test system of assay [30] is Pseudomonas syringae pv. syringae DSM 10604.
Assay [31] relates to Staphylococcus aureus 22401.

On to `CC[C@H](C)[C@H](NC(=O)[C@@H](NC(=O)[C@H](CCCCN)NC(=O)CNC(=O)[C@H](CC(C)C)NC(=O)[C@@H](NC(=O)[C@@H]1CCCN1C(=O)[C@H](CC(C)C)NC(=O)[C@@H](N)Cc1ccccc1)C(C)C)C(C)C)C(=O)N[C@@H](CCCCN)C(=O)N[C@@H](CC(C)C)C(=O)N[C@H](C(=O)NCC(=O)NCC(=O)N[C@@H](CC(C)C)C(=O)N[C@@H](CC(C)C)C(N)=O)C(C)C` [FLPVLGKVIKLVGGLL], for which the MIC is at least 50 µM in the assay with Candida glabrata 090902; 3.1 µM (≈ 5.16 µg/mL) in assay [1]; 3.1 µM (≈ 5.16 µg/mL) in assay [2]; 3.1 µM (≈ 5.16 µg/mL) in [3]; at least 50 µM in assay [4].
Regarding `CC[C@H](C)[C@@H]1NC(=O)[C@H](CCCCN)NC(=O)[C@@H](NC(=O)[C@H](CCCCN)NC(=O)[C@H](CC(C)C)NC(=O)[C@H](CCCCN)NC(=O)[C@H](CC(=O)O)NC(=O)[C@H](CC(C)C)NC(=O)[C@H](CC(C)C)NC(=O)[C@@H](NC(=O)[C@@H](NC(=O)[C@H](C)NC(=O)[C@@H](NC(=O)[C@H](CC(N)=O)NC(=O)[C@H](CCCCN)NC(=O)[C@H](Cc2ccccc2)NC(=O)[C@@H](NC(=O)[C@H](CC(N)=O)NC(=O)[C@H](CCCCN)NC(=O)[C@H](C)NC(=O)[C@@H](NC(=O)[C@H](CC(=O)O)NC(=O)[C@H](CCSC)NC(=O)[C@H](Cc2ccccc2)NC(=O)CN)[C@@H](C)O)C(C)C)C(C)C)C(C)C)[C@@H](C)O)CSSC[C@@H](C(=O)O)NC(=O)CNC(=O)CNC(=O)[C@H](C)NC1=O` [GFMDTAKNVFKNVAVTLLDKLKCKIAGGC], the MIC in assay [5] is 25 µM (≈ 77.1 µg/mL); in [1], at least 100 µM; in [6], at least 50 µM; in assay [2], 6.3 µM (≈ 19.4 µg/mL); in assay [7] it was at least 100 µM; in [3], 50 µM (≈ 154 µg/mL). In [4], this compound gave an MIC of 3.1 µM (≈ 9.56 µg/mL).
Take `CC[C@H](C)[C@H](NC(=O)[C@H](CCCCN)NC(=O)[C@@H](NC(=O)[C@H](Cc1ccccc1)NC(=O)[C@H](C)NC(=O)[C@H](CCCCN)NC(=O)CNC(=O)[C@H](Cc1ccccc1)NC(=O)[C@H](CCCCN)NC(=O)[C@H](CCCCN)NC(=O)[C@H](C)NC(=O)[C@H](CCCCN)NC(=O)[C@H](CCCCN)NC(=O)[C@H](CC(C)C)NC(=O)[C@H](Cc1ccccc1)NC(=O)[C@H](CCCCN)NC(=O)CN)C(C)C)C(N)=O` [GKFLKKAKKFGKAFVKI]: the MIC is 0.73 µM (≈ 1.41 µg/mL) in assay [8], 5.84 µM (≈ 11.3 µg/mL) in assay [9], 132 µM (≈ 256 µg/mL) in [3] and at least 264 µM in [10].
On to `CC[C@H](C)[C@H](N)C(=O)N[C@@H](CCCCN)C(=O)N[C@@H](Cc1cnc[nH]1)C(=O)N[C@@H](CCC(N)=O)C(=O)NCC(=O)N[C@@H](CC(C)C)C(=O)N1CCC[C@H]1C(=O)N[C@@H](CCC(N)=O)C(=O)N[C@@H](CCC(=O)O)C(=O)N[C@@H](CCC(=O)O)C(=O)O` [IKHQGLPQEE], for which the MIC in assay [11], in [12], in assay [13], in assay [14], in assay [15] and in [16] was at least 2500 µM throughout. The MIC in assay [17], in assay [18], in [19], in assay [20], in assay [21] and in assay [22] was at least 2500 µM in each case. The MIC in assay [23] is at least 2500 µM.
`CC[C@H](C)[C@H](NC(=O)[C@H](CC(C)C)NC(=O)[C@H](CCCCN)NC(=O)[C@@H](NC(=O)[C@@H](NC(=O)[C@H](CC(C)C)NC(=O)[C@H](CCCCN)NC(=O)[C@H](CC(C)C)NC(=O)[C@@H](NC(=O)[C@H](CCCCN)NC(=O)[C@@H](NC(=O)[C@H](CC(C)C)NC(=O)[C@H](CCCCN)NC(=O)[C@H](CCCN=C(N)N)NC(=O)[C@H](CCCN=C(N)N)NC(=O)[C@@H](N)CCCCN)[C@@H](C)CC)[C@@H](C)CC)[C@@H](C)CC)[C@@H](C)CC)C(=O)N[C@@H](CCCN=C(N)N)C(=O)N[C@@H](CCCCN)C(=O)N[C@@H](CCCCN)C(=O)N[C@@H](CCCN=C(N)N)C(N)=O` [KRRKLIKILKLIIKLIRKKR]: the MIC in assay [24] was determined as 0.977 µM (≈ 2.5 µg/mL); in assay [25] it was 0.977 µM (≈ 2.5 µg/mL); in assay [26] it was 0.0391 µM (≈ 0.1 µg/mL); in assay [27] it was 0.0391 µM (≈ 0.1 µg/mL); in [28], 3.91 µM (≈ 10 µg/mL); in [29], 2 µM (≈ 5.11 µg/mL). This compound also returned an MIC in assay [30] of 0.391 µM (≈ 1 µg/mL).
With `CC(C)C[C@H](NC(=O)CNC(=O)[C@H](Cc1ccccc1)NC(=O)[C@H](CC(C)C)NC(=O)[C@H](CCCN=C(N)N)NC(=O)[C@H](CC(C)C)NC(=O)[C@H](Cc1c[nH]c2ccccc12)NC(=O)CNC(=O)[C@H](CO)NC(=O)[C@H](CCCN=C(N)N)NC(=O)[C@H](CCCN=C(N)N)NC(=O)[C@H](CCC(=O)O)NC(=O)[C@H](CC(C)C)NC(=O)[C@H](C)NC(=O)[C@@H](N)CC(C)C)C(=O)N[C@@H](CCCCN)C(=O)N1CCC[C@H]1C(=O)N[C@@H](CCCN=C(N)N)C(=O)N[C@@H](CCCN=C(N)N)C(=O)N[C@@H](CCCCN)C(=O)N[C@@H](Cc1cnc[nH]1)C(=O)O` [LALERRSGWLRLFGLKPRRKH], the values for the MIC (in the assay on Escherichia coli 44102; in the assay with Bacillus subtilis A47; in [31]) were at least 50 µM, at least 50 µM and 12.5 µM (≈ 32.4 µg/mL), respectively.
As to `CC[C@H](C)[C@H](NC(=O)[C@H](CC(C)C)NC(=O)[C@H](CCCN=C(N)N)NC(=O)[C@H](CCCCN)NC(=O)[C@@H](NC(=O)[C@@H](NC(=O)[C@H](CCCCN)NC(=O)[C@@H](NC(=O)[C@H](CCCCN)NC(=O)[C@H](CCCCN)NC(=O)[C@H](CCCCN)NC(=O)[C@@H](N)CCCN=C(N)N)[C@@H](C)CC)[C@@H](C)CC)[C@@H](C)CC)C(N)=O` [RKKKIKIIKRLI], the MIC in [24] is 6.51 µM (≈ 9.99 µg/mL); in assay [25] it was 1.63 µM (≈ 2.5 µg/mL); in assay [26] it was 1.63 µM (≈ 2.5 µg/mL); in [27] it was 3.25 µM (≈ 5 µg/mL); in assay [28], 6.51 µM (≈ 9.99 µg/mL); in assay [29], at least 62.5 µM. For the same compound, the MIC in assay [30] is 0.163 µM (≈ 0.25 µg/mL).
As to `CC(C)C[C@H](NC(=O)[C@H](CC(C)C)NC(=O)[C@H](CC(N)=O)NC(=O)[C@H](CCC(=O)O)NC(=O)[C@H](CC(N)=O)NC(=O)[C@H](C)NC(=O)[C@@H](N)C(C)C)C(=O)N[C@@H](CCCN=C(N)N)C(=O)O` [VANENLLR], the MIC in assay [11] is at least 2500 µM; in assay [12], at least 2500 µM; in assay [13], at least 2500 µM; in [14], at least 2500 µM; in [15], at least 2500 µM; in [16] it was at least 1250 µM. In addition, the MIC in assay [17] was at least 2500 µM; in [18], at least 2500 µM; in [19], at least 1250 µM; in assay [20] it was at least 1250 µM; in assay [21], at least 2500 µM; in [22], at least 1250 µM. In assay [23], this compound showed an MIC of at least 2500 µM.

As a reminder, the MIC is the lowest concentration found to suppress growth. A low value points to inhibition by little substance.
